Results: patent US20090100532A1, “TRANSGENIC MICE EXPRESSING HYPERSENSITIVE NICOTINIC RECEPTORS” (CALIFORNIA INSTITUTE OF TECHNOLOGY, priority 2007, published 2009)
“And” between values parts separate entries of the source, which are not always exact repeats. Equal entries are not always repeated. Where two headings read alike, the source gives them in different places.

Assays:
nAChRs = type: biochemical, mouse; details: for EC50: read-out: EC50 (±SEM), Total DA release
Description: (§1) Neurotransmitter Release from Striatal Synaptosomes. After a mouse was sacrificed by cervical dislocation, its brain was removed and placed immediately on an ice-cold platform and brain regions were dissected. Tissues from each mouse were homogenized in 0.5 ml of ice-cold 0.32 M sucrose buffered with 5 mM HEPES, pH 7.5. A crude synaptosomal pellet was prepared by centrifugation at 12,000 g for 20 min. The pellets were resuspended in “uptake buffer”: 128 mM NaCl, 2.4 mM KCl, 3.2 mM CaCl2, 1.2 mM KH2PO4, 1.2 mM MgSO4, 25 mM HEPES, pH 7.5, 10 mM glucose. For DA uptake, buffer was supplemented with 1 mM ascorbic acid and 0.01 mM pargyline, whereas for GABA uptake, buffer was supplemented with 1 mM aminooxyacetic acid. For [^3H]GABA uptake, synaptosomes were incubated for 10 min at 37° C. […] For DA uptake, synaptosomes were incubated at 37° C. in uptake buffer for 10 min before addition of 100 nM [^3H]dopamine (1 μCi for every 0.2 ml of synaptosomes), and the suspension was incubated for an additional 5 min.
(§2) All experiments were conducted at room temperature using methods described previously (Nashmi et al., 2007; Salminen et al., 2007) with modifications for collection into 96-well plates. In brief, aliquots of synaptosomes (80 μl) were distributed onto filters and perfused with buffer (uptake buffer containing 0.1% bovine serum albumin and 1 μM atropine with 1 μM nomifensine (for DA release) or 0.1 μM NNC-711 [1-(2-(((diphenylmethylene)amino)oxy)ethyl)-1,2,5,6-tetrahydro-3-pyridinecarboxylic acid hydrochloride]) (for GABA release) at 0.7 ml/min for 10 min, or buffer for 5 min followed by buffer with 50 nM αCtxMII. […] Fractions (−0.1 ml) were collected for 4 min into 96-well plates every 10 sec starting from 1 min before stimulation, using a Gilson FC204 fraction collector with a multicolumn adapter (Gilson, Inc.; Middleton, Wis.). Radioactivity was determined by scintillation counting using a 1450 MicroBeta Trilux scintillation counter (Perkin Elmer Life Sciences-Wallac Oy; Turku, Finland) after addition of 0.15 ml Optiphase ‘SuperMix’ scintillation cocktail. Instrument efficiency was 40%.
(§3) Data were analyzed using SigmaPlot 5.0 for DOS. Perfusion data were plotted as counts per minute versus fraction number. Fractions collected before and after the peak were used to calculate baseline as a single exponential decay. The calculated baseline was subtracted from the experimental data. Fractions that exceeded baseline by 10% or more were sunmmed to give total released cpm and then normalized to baseline to give units of release [(cpm-baseline)/baseline]. Agonist dose response data were fit to the Hill equation.

α6^L9′S mice = details: mouse, in vivo
Description: (§4) Locomotor Activity. Mice used to study locomotion were eight to sixteen weeks old by the beginning of an experiment, and were back-crossed to C57BL/6 at least three times. […] Mouse horizontal locomotor activity was measured with an infrared photobeam activity cage system (San Diego Instruments; San Diego, Calif.). Ambulation events were recorded when two contiguous photobeams were broken in succession. Acute locomotor activity in response to nicotinic ligands or other agents was studied by recording ambulation events during four 15 sec intervals per minute for a designated number of minutes. For most experiments, groups of eight mice were placed in the activity cages (18×28 cm) and their baseline level of activity was recorded for eight minutes. Mice were removed from their cage, injected (100 μl per 25 g body mass), and returned to the cage within 15 sec. […] For generation of locomotor activity concentration-response relationship profiles, a group of mice was administered saline and, after five to eight days off, each successive dose of drug. […] For 48 h home cage monitoring, mice were isolated in their own cage and habituated to the test room and cage for 24 h. Following this, locomotor activity was recorded in 15 min intervals for 48 h.

WT mice = details: mouse, in vivo
Description: as §4

[1] = target: hypersensitive nicotinic receptors in α6L9′S VTA DA neurons (Mus musculus, UniProt Q9ERK7+Q9R0W9, L280S); type: cell-based
[2] = target: tonically active α6^L9′S channels in VTA DA neurons (Mus musculus, UniProt Q9ERK7+Q9R0W9, L280S); type: cell-based
α4β2* (non-α6) nAChRs = target: T1, α4β2* (non-α6) nAChRs (Mus musculus, UniProt O70174+Q9ERK7); assay: biochemical; type: biochemical; details: for EC50: read-out: EC50 (±SEM), MII-resistant DA release
T1 construct: from tissue; host or cells: striatal / olfactory tubercle synaptosomes of WT and α6L9′S mice
Description: as §1, §2, §3

α6* nAChRs [3] = target: T2, α6* nAChRs (Mus musculus, UniProt Q9ERK7+Q9R0W9); assay: biochemical; type: biochemical
T2 construct: from tissue
Description: as §1, §2, §3

α6* nAChRs [4] = target: T3, α6* nAChRs (Mus musculus, UniProt Q9ERK7+Q9R0W9, L280S); assay: biochemical; type: biochemical
T3 construct: from tissue
Description: as §1, §2, §3

N2a cells = assay: TIRF imaging of actin-containing membrane protrusions in N2a cells; type: cell-based, mouse
Description: TIRF Microscopy. N2a cells cultured in glass-bottomed, polyethylenimine-coated imaging dishes were transfected with cDNA mixtures as described above. Cells, superfused with the same imaging solution used for confocal microscopy, were imaged 18 to 24 h after transfection to minimize overexpression artifacts. TIRF images were obtained with an inverted microscope (Olympus IX71; Olympus America, Inc., Center Valley, Pa.) equipped with a 488-nm air-cooled argon laser (P/N IMA111040ALS; Melles Griot, Carlsbad, Calif.). Laser output was controlled with a UNIBLITZ shutter system and drive unit (P/N VMM-D1; Vincent Associates, Rochester, N.Y.) equipped with a Mitutoyo (Mitutoyo America, City of Industry, CA) micrometer to control TIRF evanescent field illumination. TIRF imaging was carried out with an Olympus PlanApo 100×1.45 NA oil objective, and images were captured with a 16-bit resolution Photometrics Cascade charge-coupled device camera (Photometrics, Tucson, Ariz.) controlled by SlideBook 4.0 imaging software (Intelligent Imaging Innovations, Santa Monica, Calif.).

LC neurons (α6* nAChRs) = type: cell-based, mouse

T3 sequence (Q9ERK7 26-501, stated change not applied): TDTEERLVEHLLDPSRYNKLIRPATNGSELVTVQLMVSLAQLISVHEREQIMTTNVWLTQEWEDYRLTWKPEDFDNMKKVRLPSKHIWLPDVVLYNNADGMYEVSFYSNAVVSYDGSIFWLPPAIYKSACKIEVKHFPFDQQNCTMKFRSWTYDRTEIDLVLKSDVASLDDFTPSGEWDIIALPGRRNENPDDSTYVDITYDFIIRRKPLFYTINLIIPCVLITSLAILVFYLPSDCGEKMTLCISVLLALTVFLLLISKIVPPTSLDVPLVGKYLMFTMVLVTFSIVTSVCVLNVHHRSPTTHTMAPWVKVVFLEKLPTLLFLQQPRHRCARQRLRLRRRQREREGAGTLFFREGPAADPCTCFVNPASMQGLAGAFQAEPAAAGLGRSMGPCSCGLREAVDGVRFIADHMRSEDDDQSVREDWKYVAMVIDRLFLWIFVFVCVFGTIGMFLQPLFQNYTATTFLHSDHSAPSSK
T3 sequence (Q8BMN3 31-464, further chain): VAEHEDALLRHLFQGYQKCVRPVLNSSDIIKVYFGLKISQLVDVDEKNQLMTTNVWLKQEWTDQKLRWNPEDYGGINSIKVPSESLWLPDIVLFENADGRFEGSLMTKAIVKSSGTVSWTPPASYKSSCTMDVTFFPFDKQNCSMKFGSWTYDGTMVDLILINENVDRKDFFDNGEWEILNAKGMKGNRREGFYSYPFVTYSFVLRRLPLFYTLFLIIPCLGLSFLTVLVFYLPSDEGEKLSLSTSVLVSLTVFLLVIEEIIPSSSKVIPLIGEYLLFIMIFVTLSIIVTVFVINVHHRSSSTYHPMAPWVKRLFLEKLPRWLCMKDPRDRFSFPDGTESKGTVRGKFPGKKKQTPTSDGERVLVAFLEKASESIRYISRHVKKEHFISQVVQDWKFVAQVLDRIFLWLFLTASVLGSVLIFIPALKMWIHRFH
T3 sequence (Q9R0W9 31-494 L280S): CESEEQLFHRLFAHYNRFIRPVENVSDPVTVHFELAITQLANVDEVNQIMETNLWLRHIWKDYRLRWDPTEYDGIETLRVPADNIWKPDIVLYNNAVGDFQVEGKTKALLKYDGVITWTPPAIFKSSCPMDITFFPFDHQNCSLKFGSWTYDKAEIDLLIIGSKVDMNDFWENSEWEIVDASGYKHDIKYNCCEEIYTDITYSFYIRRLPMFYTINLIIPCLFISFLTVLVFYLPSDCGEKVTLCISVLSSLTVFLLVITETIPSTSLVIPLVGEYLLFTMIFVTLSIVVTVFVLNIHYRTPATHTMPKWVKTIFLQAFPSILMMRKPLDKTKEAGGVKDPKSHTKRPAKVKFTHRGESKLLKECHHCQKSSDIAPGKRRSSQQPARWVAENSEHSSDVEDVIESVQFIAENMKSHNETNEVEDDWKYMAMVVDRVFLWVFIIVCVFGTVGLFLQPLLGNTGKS
T1 sequence (Q9ERK7 26-501): as the sequence (Q9ERK7 26-501, stated change not applied) above
T1 sequence (O70174 31-629): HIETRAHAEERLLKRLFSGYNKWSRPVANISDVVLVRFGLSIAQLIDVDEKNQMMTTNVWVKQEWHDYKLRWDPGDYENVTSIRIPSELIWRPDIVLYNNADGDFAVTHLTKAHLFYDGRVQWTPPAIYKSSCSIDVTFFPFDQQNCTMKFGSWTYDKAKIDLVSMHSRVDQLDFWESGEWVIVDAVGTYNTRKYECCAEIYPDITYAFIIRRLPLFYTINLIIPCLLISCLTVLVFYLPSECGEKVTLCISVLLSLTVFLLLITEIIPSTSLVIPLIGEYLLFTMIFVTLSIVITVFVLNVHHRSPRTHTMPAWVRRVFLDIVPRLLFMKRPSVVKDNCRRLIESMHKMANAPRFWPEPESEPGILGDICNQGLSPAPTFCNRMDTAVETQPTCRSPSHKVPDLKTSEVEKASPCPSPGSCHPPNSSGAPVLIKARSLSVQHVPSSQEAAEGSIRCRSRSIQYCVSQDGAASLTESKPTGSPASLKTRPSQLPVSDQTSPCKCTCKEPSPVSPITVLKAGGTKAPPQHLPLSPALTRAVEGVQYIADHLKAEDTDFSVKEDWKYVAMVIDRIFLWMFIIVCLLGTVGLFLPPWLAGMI
T2 sequence (Q9R0W9 31-494): as the sequence (Q9R0W9 31-494 L280S) above, with S250L counted along it
T2 sequence (Q8BMN3 31-464, further chain): as the sequence (Q8BMN3 31-464, further chain) above
T2 sequence (Q9ERK7 26-501): as the sequence (Q9ERK7 26-501, stated change not applied) above
Chain of tonically active α6^L9′S channels in VTA DA neurons (Q9ERK7 whole entry, looked up, stated change not applied): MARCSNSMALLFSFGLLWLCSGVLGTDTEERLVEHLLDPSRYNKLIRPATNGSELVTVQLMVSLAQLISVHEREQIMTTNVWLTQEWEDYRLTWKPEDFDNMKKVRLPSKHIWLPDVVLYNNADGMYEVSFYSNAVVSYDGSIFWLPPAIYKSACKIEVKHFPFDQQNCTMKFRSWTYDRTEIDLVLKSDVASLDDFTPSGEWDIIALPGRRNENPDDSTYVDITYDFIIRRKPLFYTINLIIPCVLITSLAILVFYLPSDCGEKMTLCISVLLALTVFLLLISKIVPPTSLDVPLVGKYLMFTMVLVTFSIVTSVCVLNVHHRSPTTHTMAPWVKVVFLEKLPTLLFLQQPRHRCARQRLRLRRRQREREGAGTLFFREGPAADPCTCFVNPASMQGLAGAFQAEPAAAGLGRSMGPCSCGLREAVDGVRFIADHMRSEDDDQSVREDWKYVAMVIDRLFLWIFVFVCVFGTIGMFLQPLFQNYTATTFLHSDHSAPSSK
Chain of tonically active α6^L9′S channels in VTA DA neurons (Q9R0W9 whole entry, looked up, stated change not applied): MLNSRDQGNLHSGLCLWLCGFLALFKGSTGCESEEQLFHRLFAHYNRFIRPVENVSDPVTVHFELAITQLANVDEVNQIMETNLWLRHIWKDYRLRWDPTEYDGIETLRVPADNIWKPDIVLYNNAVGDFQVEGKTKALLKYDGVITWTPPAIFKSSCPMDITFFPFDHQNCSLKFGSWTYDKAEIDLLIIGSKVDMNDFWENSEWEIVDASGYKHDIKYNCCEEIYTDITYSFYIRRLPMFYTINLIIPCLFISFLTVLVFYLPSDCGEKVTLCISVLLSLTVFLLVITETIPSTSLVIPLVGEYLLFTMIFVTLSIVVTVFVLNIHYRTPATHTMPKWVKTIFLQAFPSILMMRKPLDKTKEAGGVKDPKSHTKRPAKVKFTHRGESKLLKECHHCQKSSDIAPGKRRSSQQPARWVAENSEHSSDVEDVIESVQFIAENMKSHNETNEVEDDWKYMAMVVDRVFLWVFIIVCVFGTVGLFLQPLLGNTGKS
Chain of hypersensitive nicotinic receptors in α6L9′S VTA DA neurons (Q9ERK7 whole entry, looked up, stated change not applied): as the sequence (Q9ERK7 whole entry, looked up, stated change not applied) above
Chain of hypersensitive nicotinic receptors in α6L9′S VTA DA neurons (Q9R0W9 whole entry, looked up, stated change not applied): as the sequence (Q9R0W9 whole entry, looked up, stated change not applied) above

c1cncc(C2CC3CCN2CC3)c1 (racemic) [TC 2429]
%10 μM nic, Total DA release (nAChRs): 49.0% and 73.40% and 71.00% | Rmax (±SEM), Total DA release (nAChRs): 8.68 ± 1.25 and 12.87 ± 0.37 and 11.86 ± 0.41 | locomotor activity (α6^L9′S mice): stimulated locomotor activity | locomotor suppression (WT mice): did not produce locomotor suppression

N#Cc1cc2c(cc1[N+](=O)[O-])=NC(=O)C(=O)N=2 [CNQX, 6-cyano-7-nitroquinoxaline-2,3-dione]
block of whole-cell responses to 1 μM nicotine [1]: unaffected | effect on increased channel/membrane noise [2]: No effect

CO[C@H]1CC=C2CCN3CCC4=C(CC(=O)OC4)[C@]23C1 [DHβE, dihydro-β-erythroidine]
block of whole-cell responses to 1 μM nicotine [1]: 100% | effect on increased channel/membrane noise [2]: completely eliminated

CCN1C[C@]2(COC(=O)c3ccccc3N3C(=O)C[C@H](C)C3=O)CC[C@H](OC)[C@@]34[C@@H]5C[C@H]6[C@H](OC)[C@@H]5[C@](O)(C[C@@H]6OC)[C@@](O)([C@@H](OC)[C@H]23)[C@@H]14 [MLA, methyllycaconitine]
block of whole-cell responses to 1 μM nicotine [1]: 0%

CNCC/C=C/c1cccnc1 [TC 2403]
%10 μM nic, MII-resistant DA release (α4β2* (non-α6) nAChRs): 81.78% and 81.48% and 90.64% | Rmax (±SEM), MII-resistant DA release (α4β2* (non-α6) nAChRs): 7.26 ± 0.29 and 9.3 ± 0.33 | agonist character at α4β2 for DA release (vs. nicotine) (α4β2* (non-α6) nAChRs): full agonist (vs. nicotine) | Rmax (±SEM), MII-resistant DA release (α4β2* (non-α6) nAChRs; ST/OT, WT): 12.32 ± 0.26 | EC50 (α4β2* (non-α6) nAChRs; ST/OT, WT): 2850 ± 350 nM | EC50 (α4β2* (non-α6) nAChRs): 3530 nM and 4030 nM | %10 μM nic, MII-sensitive DA release (α6* nAChRs [3]): 28.83% | agonist character at α6β2* for DA release (vs. nicotine) (α6* nAChRs [3]): no activity | Rmax (±SEM), MII-sensitive DA release (α6* nAChRs [3]; ST/OT, WT): 0.47 ± 0.2 | EC50 (α6* nAChRs [3]; ST/OT, WT, read-out: EC50 (±SEM), MII-sensitive DA release): 60 ± 180 nM | %10 μM nic, MII-sensitive DA release (α6* nAChRs [4]): 44.85% and 33.01% | Rmax (±SEM), MII-sensitive DA release (α6* nAChRs [4]): 4.83 ± 0.15 and 3.43 ± 0.32 | agonist character at the αCtxMII-sensitive receptor (α6* nAChRs [4]): partial agonist | EC50 (α6* nAChRs [4]; read-out: EC50 (±SEM), MII-sensitive DA release): 190 nM and 100 nM | %10 μM nic, Total DA release (nAChRs): 74.11% and 54.47% and 51.19% | Rmax (±SEM), Total DA release (nAChRs): 10.72 ± 0.61 and 10.57 ± 0.74 | Rmax (±SEM), Total DA release (nAChRs; ST/OT, WT): 12.37 ± 0.93 | EC50 (nAChRs; ST/OT, WT): 2360 ± 560 nM | EC50 (nAChRs): 700 nM and 820 nM | potency and efficacy for DA release, α6^L9′S relative to WT (nAChRs; striatal synaptosomes): slightly more potent and had equivalent efficacy | locomotor activity (α6^L9′S mice): slight locomotor activation

NC1=N[C@H](O)[C@H]2[C@H]3O[C@]4(O)O[C@@H]([C@@H](O)[C@@]2(N1)[C@@H]4O)[C@]3(O)CO [TTX, tetrodotoxin]
block of whole-cell responses to 1 μM nicotine [1]: unaffected | effect on increased channel/membrane noise [2]: No effect

C/C1=C/C(=O)O[C@@H]2C[C@@H](CC[C@H](C)/C=C\CC1)O[C@@](O)([C@@H]1CSC(=O)N1)C2 [latrunculin B]
effect on actin-containing membrane protrusions (N2a cells): destroyed

CNC1(C)C2CCC(C2)C1(C)C (centres unmarked) [mecamylamine]
effect of antagonist pre-injection on nicotine-stimulated locomotor response (α6^L9′S mice): strong block of the locomotor response

COc1cc2nc(N3CCN(C(=O)c4ccco4)CC3)nc(N)c2cc1OC [prazosin]
effect of antagonist pre-injection on nicotine-stimulated locomotor response (α6^L9′S mice): no change was found

CCN1CCCC1CNC(=O)c1cc(S(N)(=O)=O)ccc1OC (centres unmarked) [sulpiride]
effect of antagonist pre-injection on nicotine-stimulated locomotor response (α6^L9′S mice): partially inhibited | baseline firing of VTA DA cells (VTA DA neurons): modestly increase baseline firing | effect on nicotine-induced increases in firing (VTA DA neurons): did not affect

COC(=O)[C@@H]1[C@H]2C[C@H]3c4[nH]c5ccccc5c4CCN3C[C@@H]2CC[C@@H]1O [yohimbine]
effect of antagonist pre-injection on nicotine-stimulated locomotor response (α6^L9′S mice): no change was found

picrotoxin
effect on increased channel/membrane noise [2]: No effect

α-conotoxin MII [αCtxMII]
block of whole-cell responses to 1 μM nicotine [1]: > 90% | persistence of block after washout [1]: 30 min | inhibition of nicotine responses in LC neurons (LC neurons (α6* nAChRs)): sensitive to αCtxMII | effect on increased channel/membrane noise [2]: completely eliminated
